Experimental data from ChEMBL document CHEMBL1136877, “2,4(5)-diarylimidazoles as inhibitors of hNaV1.2 sodium channels: pharmacological evaluation and structure-property relationships” (Bioorg Med Chem, 2009).
Active and inactive are the calls of the source. The rule behind the calls is not given here.

Assays:
[1] = molecular target: T1, Sodium channel protein type 2 subunit alpha (Homo sapiens, UniProt Q99250); experiment: Inhibition of human Nav1.2 channel expressed in HEK cells at 10 uM by patch-clamp electrophysiology method; format: cell-based; conditions: HEK293
Target sequence in this assay (Q99250 whole entry, looked up): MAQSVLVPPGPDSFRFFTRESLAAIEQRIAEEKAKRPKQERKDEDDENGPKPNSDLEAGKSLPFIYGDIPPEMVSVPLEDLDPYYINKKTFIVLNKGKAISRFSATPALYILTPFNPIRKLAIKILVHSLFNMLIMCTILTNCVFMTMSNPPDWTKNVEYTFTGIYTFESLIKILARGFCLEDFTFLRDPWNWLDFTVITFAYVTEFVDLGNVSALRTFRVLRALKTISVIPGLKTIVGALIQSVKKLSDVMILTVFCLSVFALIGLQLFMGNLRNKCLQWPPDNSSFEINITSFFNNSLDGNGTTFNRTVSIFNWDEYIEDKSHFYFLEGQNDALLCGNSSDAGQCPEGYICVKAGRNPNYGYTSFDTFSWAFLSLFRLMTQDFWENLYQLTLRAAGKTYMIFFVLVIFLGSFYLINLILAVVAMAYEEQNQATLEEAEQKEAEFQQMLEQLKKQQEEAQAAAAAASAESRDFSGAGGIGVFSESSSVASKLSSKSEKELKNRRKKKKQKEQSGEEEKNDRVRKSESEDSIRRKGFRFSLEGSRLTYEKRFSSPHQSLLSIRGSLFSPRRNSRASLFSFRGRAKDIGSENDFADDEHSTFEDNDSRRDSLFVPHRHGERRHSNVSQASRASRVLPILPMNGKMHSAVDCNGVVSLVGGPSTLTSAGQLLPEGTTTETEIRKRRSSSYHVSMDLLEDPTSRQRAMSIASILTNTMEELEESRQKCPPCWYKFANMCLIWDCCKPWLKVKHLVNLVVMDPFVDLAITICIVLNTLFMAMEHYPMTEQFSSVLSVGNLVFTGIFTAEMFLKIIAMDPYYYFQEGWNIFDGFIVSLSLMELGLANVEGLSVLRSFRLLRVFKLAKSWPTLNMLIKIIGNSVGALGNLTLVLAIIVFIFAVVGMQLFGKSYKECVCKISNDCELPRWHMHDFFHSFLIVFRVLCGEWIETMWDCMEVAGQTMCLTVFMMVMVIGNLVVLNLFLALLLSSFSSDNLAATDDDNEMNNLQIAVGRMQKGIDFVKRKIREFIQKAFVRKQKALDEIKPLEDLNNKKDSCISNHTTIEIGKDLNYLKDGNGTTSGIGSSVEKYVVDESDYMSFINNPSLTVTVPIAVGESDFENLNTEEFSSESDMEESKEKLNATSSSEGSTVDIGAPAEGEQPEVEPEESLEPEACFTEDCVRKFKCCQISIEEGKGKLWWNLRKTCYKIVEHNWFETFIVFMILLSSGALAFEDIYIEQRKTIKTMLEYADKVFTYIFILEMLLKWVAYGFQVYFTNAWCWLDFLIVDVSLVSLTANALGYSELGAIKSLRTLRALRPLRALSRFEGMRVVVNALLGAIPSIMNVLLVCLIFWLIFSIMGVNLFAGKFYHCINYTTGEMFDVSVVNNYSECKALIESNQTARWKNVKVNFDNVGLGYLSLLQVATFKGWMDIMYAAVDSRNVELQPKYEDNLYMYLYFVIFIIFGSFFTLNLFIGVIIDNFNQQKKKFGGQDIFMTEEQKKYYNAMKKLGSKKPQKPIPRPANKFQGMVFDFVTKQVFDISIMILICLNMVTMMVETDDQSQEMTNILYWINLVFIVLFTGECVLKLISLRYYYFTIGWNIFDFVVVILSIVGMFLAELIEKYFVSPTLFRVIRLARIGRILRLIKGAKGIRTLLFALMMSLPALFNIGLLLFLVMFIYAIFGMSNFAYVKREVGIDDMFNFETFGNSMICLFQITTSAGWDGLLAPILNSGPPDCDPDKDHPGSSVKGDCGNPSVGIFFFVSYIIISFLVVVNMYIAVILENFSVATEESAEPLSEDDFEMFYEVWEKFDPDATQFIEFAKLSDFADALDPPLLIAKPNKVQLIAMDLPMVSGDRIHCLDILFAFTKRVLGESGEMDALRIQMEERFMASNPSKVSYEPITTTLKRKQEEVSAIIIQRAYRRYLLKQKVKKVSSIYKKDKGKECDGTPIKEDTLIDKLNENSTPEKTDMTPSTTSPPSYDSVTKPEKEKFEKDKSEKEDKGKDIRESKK

[2] = Octanol-buffer partition coefficient, log D at pH 7.4 by shake-flask method; format: physicochemical
[3] = molecular target: T1, Sodium channel protein type 2 subunit alpha; experiment: Inhibition of human Nav1.2 channel expressed in HEK cells at 100 uM by patch-clamp electrophysiology method; format: cell-based; conditions: HEK293
Target sequence in this assay (Q99250 whole entry, looked up): as above

[4] = Dissociation constant, pKa by potentiometric pH-metric method; format: physicochemical
[5] = molecular target: T1, Sodium channel protein type 2 subunit alpha; experiment: Inhibition of human Nav1.2 channel expressed in HEK cells by patch-clamp electrophysiology method; format: cell-based, HEK293
Target sequence in this assay (Q99250 whole entry): as the sequence (Q99250 whole entry, looked up) above

Row | Structure (SMILES) | inhibition [1] | logD [2] | inhibition [3] | pKa [4] | IC50 [5]
1 | COc1cccc(-c2c[nH]c(-c3ccccc3)n2)c1 | 14.2% | 3.74 | 35.6% | 5.58 | 
2 | O=[N+]([O-])c1cccc(-c2nc(-c3ccccc3)c[nH]2)c1 | inactive | 3.89 | 20.4% | 4.92 | 
3 | Clc1ccc(-c2c[nH]c(-c3ccccc3)n2)cc1 | 31.5% | 4.53 | 96.6% | 5.47 | 
4 | O=[N+]([O-])c1ccc(-c2c[nH]c(-c3ccccc3)n2)cc1 | inactive | 3.95 | 30.3% | 5.12 | 
5 | FC(F)(F)c1cccc(-c2c[nH]c(-c3ccccc3)n2)c1 | 82.9% | 4.72 | 100% | 5.27 | 2700 nM
6 | FC(F)(F)c1cccc(-c2c[nH]c(-c3cccc(C(F)(F)F)c3)n2)c1 | 100% |  | 100% |  | 200 nM
7 | Clc1cccc(-c2c[nH]c(-c3ccccc3)n2)c1 |  | 4.76 |  | 5.45 | 
8 | O=[N+]([O-])c1cccc(-c2c[nH]c(-c3ccccc3)n2)c1 | 15.6% | 3.9 | 85.8% | 4.82 | 
9 | COc1ccc(-c2nc(-c3ccccc3)c[nH]2)cc1 |  | 3.62 |  | 6.03 | 
10 | FC(F)(F)c1ccc(-c2nc(-c3ccccc3)c[nH]2)cc1 |  | 4.9 |  | 5.19 | 
11 | FC(F)(F)c1cccc(-c2nc(-c3ccccc3)c[nH]2)c1 | 49.2% | 4.54 | 95.2% | 5.11 | 
12 | O=[N+]([O-])c1ccc(-c2nc(-c3cccc(C(F)(F)F)c3)c[nH]2)cc1 | 86.9% |  | 100% |  | 2500 nM
13 | c1ccc(-c2c[nH]c(-c3ccccc3)n2)cc1 | 7.8% | 3.72 | 80.5% | 5.65 | 40600 nM
14 | COc1cccc(-c2nc(-c3ccccc3)c[nH]2)c1 | inactive | 3.84 | 41.7% | 5.57 | 
15 | FC(F)(F)c1ccc(-c2c[nH]c(-c3ccccc3)n2)cc1 | 91.6% | 4.78 | 100% | 5.31 | 1400 nM
16 | FC(F)(F)c1cccc(-c2c[nH]c(-c3ccc(Cl)cc3)n2)c1 | 27.5% |  | 43.6% |  | > 100000 nM
17 | COc1ccc(-c2c[nH]c(-c3ccccc3)n2)cc1 | inactive | 3.66 | 33.3% | 5.83 | 
18 | O=[N+]([O-])c1ccc(-c2nc(-c3ccccc3)c[nH]2)cc1 | 57.1% | 4.06 | 92.6% | 4.74 | 
19 | Clc1ccc(-c2nc(-c3ccccc3)c[nH]2)cc1 | 92.5% | 4.27 | 100% | 5.37 | 1400 nM
20 | Nc1nnc(-c2cccc(Cl)c2Cl)c(N)n1 [LAMOTRIGINE] | 12.1% |  | 35.1% |  | > 100000 nM
21 | Clc1cccc(-c2nc(-c3ccccc3)c[nH]2)c1 | 7.5% | 4.54 | 92.2% | 5.12 | 
